Source: patent US10780074B2, “Compounds and uses thereof” (Sunovion Pharmaceuticals Inc., priority 2017, dated 2020)
Counter-ions that a name gives are not always drawn.

Test system: behaviors of compound-treated mice
Assay: Neuropharmacological Assay (SmartCube)
Type: in vivo
Details: for minimal effective dose: Mus musculus, ip, 0.25 h, dose having 50% or more total activity in SmartCube, i.p., read-out: MED (minimal effective dose); for AD: ADHD (probability that activity matches class) / AG: analgesic (probability that activity matches class) / AX: anxiolytic (probability that activity matches class) / CE: cognitive enhancer (probability that activity matches class) / DP: anti-depressant (probability that activity matches class) / MS: mood stabilizer (probability that activity matches class) / PS: anti-psychotic (probability that activity matches class) / SD: sedative hypnotic (probability that activity matches class) / UN: uncharacterized CNS activity (probability that activity matches class): i.p. 15 min before behavioral test, most efficacious dose(s) of 3 doses
Outline: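 Behavioral signatures were captured automatically by video, and each drug class received a probability for the best of three i.p. doses given 15 min pre-test (vehicle: Pharmasolve/PEG/propylene glycol). Potency is given as MED, the lowest mpk dose (typically 0.3–30) reaching 50% or more total activity.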

SMILES	minimal effective dose	AD: ADHD (probability that activity matches class)	AG: analgesic (probability that activity matches class)	AX: anxiolytic (probability that activity matches class)	CE: cognitive enhancer (probability that activity matches class)	DP: anti-depressant (probability that activity matches class)	MS: mood stabilizer (probability that activity matches class)	PS: anti-psychotic (probability that activity matches class)	SD: sedative hypnotic (probability that activity matches class)	UN: uncharacterized CNS activity (probability that activity matches class)
CNC[C@H]1OCc2c(-c3cccnc3)cccc21 [Compound 34, (S)—N-Methyl-1-(4-(pyridin-3-yl)-1,3-dihydroisobenzofuran-1-yl)methanamine hydrochloride salt]	≤ 3 mg/kg	+ (LOQ ≤ + <5%)	+ (LOQ ≤ + <5%)	++ (5% ≤ ++ <25%)	+ (LOQ ≤ + <5%)	++++ (50% ≤ ++++)	++ (5% ≤ ++ <25%)	+ (LOQ ≤ + <5%)	+ (LOQ ≤ + <5%)	+ (LOQ ≤ + <5%)
NC[C@@H]1OCc2c(-c3cccnc3)cccc21 [Compound 35, (R)-(4-(Pyridin-3-yl)-1,3-dihydroisobenzofuran-1-yl)methanamine hydrochloride]	3 to 10 mg/kg	++ (5% ≤ ++ <25%)	+ (LOQ ≤ + <5%)	++ (5% ≤ ++ <25%)	+ (LOQ ≤ + <5%)	++++ (50% ≤ ++++)	+ (LOQ ≤ + <5%)	+ (LOQ ≤ + <5%)	+ (LOQ ≤ + <5%)	+ (LOQ ≤ + <5%)
NC[C@H]1OCc2c(-c3cccnc3)cccc21 [Compound 36, (S)-(4-(Pyridin-3-yl)-1,3-dihydroisobenzofuran-1-yl)methanamine hydrochloride]	≤ 3 mg/kg	++ (5% ≤ ++ <25%)	+ (LOQ ≤ + <5%)	+ (LOQ ≤ + <5%)	++ (5% ≤ ++ <25%)	++++ (50% ≤ ++++)	+ (LOQ ≤ + <5%)	+ (LOQ ≤ + <5%)	+ (LOQ ≤ + <5%)	+ (LOQ ≤ + <5%)
CNC[C@H]1OCc2c(-c3ccncc3)cccc21 [Compound 40, (S)—N-Methyl-1-(4-(pyridin-4-yl)-1,3-dihydroisobenzofuran-1-yl)methanamine hydrochloride salt]	≤ 3 mg/kg	++ (5% ≤ ++ <25%)	++++ (50% ≤ ++++)	++ (5% ≤ ++ <25%)	++ (5% ≤ ++ <25%)	++++ (50% ≤ ++++)	+ (LOQ ≤ + <5%)	+ (LOQ ≤ + <5%)	+ (LOQ ≤ + <5%)	+ (LOQ ≤ + <5%)
NC[C@@H]1OCCc2ccc(-c3ccncc3)cc21 [Compound 47, (R)-(7-(pyridin-4-yl)isochroman-1-yl)methanamine hydrochloride]	3 to 10 mg/kg	+ (LOQ ≤ + <5%)	+ (LOQ ≤ + <5%)	++ (5% ≤ ++ <25%)	+ (LOQ ≤ + <5%)	++++ (50% ≤ ++++)	+ (LOQ ≤ + <5%)	++ (5% ≤ ++ <25%)	+ (LOQ ≤ + <5%)	+ (LOQ ≤ + <5%)
NC[C@H]1OCCc2ccc(-c3ccncc3)cc21 [Compound 48, (S)-(7-(pyridin-4-yl)isochroman-1-yl)methanamine hydrochloride]	3 to 10 mg/kg	+ (LOQ ≤ + <5%)	+ (LOQ ≤ + <5%)	++ (5% ≤ ++ <25%)	++ (5% ≤ ++ <25%)	+ (LOQ ≤ + <5%)	+ (LOQ ≤ + <5%)	++ (5% ≤ ++ <25%)	+++ (25% ≤ +++ <50%)	+++ (25% ≤ +++ <50%)
CNC[C@@H]1OCCc2ccc(-c3ccncc3)cc21 [Compound 49, (R)—N-Methyl-1-(7-(pyridin-4-yl)isochroman-1-yl)methanamine hydrochloride]	≤ 3 mg/kg	+ (LOQ ≤ + <5%)	++ (5% ≤ ++ <25%)	++ (5% ≤ ++ <25%)	++ (5% ≤ ++ <25%)	++ (5% ≤ ++ <25%)	+ (LOQ ≤ + <5%)	++ (5% ≤ ++ <25%)	+ (LOQ ≤ + <5%)	++++ (50% ≤ ++++)
CNC[C@H]1OCCc2ccc(-c3ccncc3)cc21 [Compound 50, (S)—N-Methyl-1-(7-(pyridin-4-yl)isochroman-1-yl)methanamine hydrochloride]	3 to 10 mg/kg	+ (LOQ ≤ + <5%)	+ (LOQ ≤ + <5%)	++ (5% ≤ ++ <25%)	++ (5% ≤ ++ <25%)	++ (5% ≤ ++ <25%)	+ (LOQ ≤ + <5%)	+ (LOQ ≤ + <5%)	+ (LOQ ≤ + <5%)	++++ (50% ≤ ++++)
CCNCC1OCCc2c(-c3ccncc3)cccc21 (centres unmarked) [Compound 51, N-((5-(Pyridin-4-yl)isochroman-1-yl)methyl)ethanamine hydrochloride salt]	3 to 10 mg/kg	+ (LOQ ≤ + <5%)	+ (LOQ ≤ + <5%)	+ (LOQ ≤ + <5%)	+ (LOQ ≤ + <5%)	++++ (50% ≤ ++++)	+ (LOQ ≤ + <5%)	++ (5% ≤ ++ <25%)	++ (5% ≤ ++ <25%)	+ (LOQ ≤ + <5%)
CNCC1OCCc2c(-c3cncs3)cccc21 (centres unmarked) [Compound 52, N-Methyl-1-(5-(thiazol-5-yl)isochroman-1-yl)methanamine hydrochloride]	3 to 10 mg/kg	+ (LOQ ≤ + <5%)	+ (LOQ ≤ + <5%)	+ (LOQ ≤ + <5%)	+ (LOQ ≤ + <5%)	++++ (50% ≤ ++++)	+ (LOQ ≤ + <5%)	+ (LOQ ≤ + <5%)	+ (LOQ ≤ + <5%)	++ (5% ≤ ++ <25%)
CNCC1OCCc2c(-c3ccncn3)cccc21 (centres unmarked) [Compound 53, N-Methyl-1-(5-(pyrimidin-4-yl)isochroman-1-yl)methanamine hydrochloride salt]	3 to 10 mg/kg	++ (5% ≤ ++ <25%)	+ (LOQ ≤ + <5%)	++ (5% ≤ ++ <25%)	+ (LOQ ≤ + <5%)	++++ (50% ≤ ++++)	+ (LOQ ≤ + <5%)	+ (LOQ ≤ + <5%)	+ (LOQ ≤ + <5%)	+ (LOQ ≤ + <5%)
